Laboratory results: patent US20240377404A1, “BIOLUMINESCENCE-TRIGGERED PHOTOCATALYTIC ACTIVATION” (Promega Corporation, priority 2023, published 2024)

Key:
[1] = tested on: HeLa cells expressing the HT178-cpNLuc-179 chimera; test: Bioluminescence-triggered uncaging of azido-quenched fluorophores inside cells; assay type: cell-based; settings: 2-20 μM fluorophore, 20 μM fluorofurimazine 45 minutes, with/without Ir-9049 or Ru-8974 (3 μM)
Description: Structure of exemplary azido quenched fluorophores and a cartoon depicting bioluminescent-triggered fluorescence turn-on are included in FIG. 9. Briefly, upon absorbance of light, the excited catalyst engages in energy transfer events with the azido-quenched fluorophore to generate a nitrene through elimination of an N2 group, which restore the fluorophore's fluorescence. HeLa cells were transfected with a DNA construct encoding HT178-cpNLuc-179 that was diluted 50-fold into promoterless carrier DNA, plated in flasks at 2×10^5 cell/mL, and incubated 16-18 hours at 37° C., 5% CO2. The next day, cells were collated, replated in 24-well plates at 2×10^5 cell/mL, and incubated overnight at 37° C., 5% CO2. […] Cells were then washed twice, 15 minutes each, in HBSS buffer to remove excess unreacted catalyst or chloroalkane-biotin.

[2] = tested on: Firefly (FFLY) luciferase; test: Bioluminescence-triggered uncaging of o-nitrobenzyl-F-luciferin, FFLY luminescence readout; assay type: biochemical
Description: (§1) As depicted in FIG. 18A, bioluminescence-triggered ruthenium-catalyzed excitation of o-nitrobenzyl-caged F-luciferin to liberate F-luciferin, which is then available as a substrate for FFLY luciferase. Synthesis of o-nitrobenzyl-caged F-luciferin is provided in Example 11. […] Residual NanoLuc bioluminescence signal was quenched by treatment with 10 mM competitive extracellular NanoLuc inhibitor before subsequent 5-fold dilution into FFLY detection plate comprising FFLY luciferase, ATP, and Bright-Glo buffer. Bioluminescence was measured before and after dilution into the FFLY detection plate.

[3] = tested on: Firefly (FFLY) luciferase; test: Bioluminescence-triggered uncaging of p-azidobenzyl-luciferin, FFLY luminescence readout; assay type: biochemical
Description: as §1, with “FIG. 17A,” for “FIG. 18A,”, “ruthenium-catalyzed reduction” for “ruthenium-catalyzed excitation”, “of p-azidobenzyl-caged luciferin” for “of o-nitrobenzyl-caged F-luciferin”, “liberate luciferin,” for “liberate F-luciferin,”, “as” for “as a”, “for Firefly (FFLY)” for “for FFLY”

NanoLuc (Nluc) enzyme = test: Bioluminescence-triggered release of serotonin from caging Ru complex; assay type: biochemical; settings: 200 μM RuBi5, 6 nM NanoLuc, 5 μM fluorofurimazine, 40 minutes
Description: As depicted in FIG. 16A, the amino-signaling molecule serotonin is caged through a coordination reaction with the [Ru^2+(bpy)2]2 core. Upon absorbance of light, the excited ruthenium catalyst induces an oxidation-driven release of serotonin while a water molecule occupies the vacant coordination site.
Here, 6 nM NanoLuc (Nluc) enzyme and 5 μM fluorofurimazine, in the presence and absences of 200 μM RuBi5 (Abcam), were incubated in a white plate for 40 minutes. Reactions were then transferred to a black plate, and 200 μM RuBi5 (caged) added to the control wells.

[4] = 60 nM HT178-cpNLuc-179 tethered/untethered to Ru-8974, 0-10 μM, with/without 20 μM fluorofurimazine, 45 minutes
[5] = fold increase in FFLY luminescence

For `CC[n+]1c(-c2ccccc2)c2cc(N=[N+]=[N-])ccc2c2ccc(N)cc21.[Br-]` [EMA, Ethidium Monoazide Bromide, reference compound], the “fluorescence turn-on upon uncaging” value [1] was “pronounced catalyst dependent increase in fluorescence”.

For `CCN(CC)c1ccc2c(C)c(N=[N+]=N)c(=O)oc2c1` [PBI-8977], the “fluorescence turn-on upon uncaging” value [1] was “pronounced catalyst dependent increase in fluorescence”.

In the case of `O=C(O)[C@H]1CSC(c2nc3cc(F)c(OCc4ccc([N+](=O)[O-])cc4)cc3s2)=N1` [o-nitrobenzyl-F-luciferin, (S)-2-(5-fluoro-6-((4-nitrobenzyl)oxy)benzo[d]thiazol-2-yl)-4,5-dihydrothiazole-4-carboxylic acid], the “FFLY luminescence after uncaging” value [2, 4] is reported as “Bioluminescence and Ru-dependent increase in FFLY dependent bioluminescence” and the “uncaging efficiency, bioluminescence versus LED” value [2, 5] is reported as “higher efficiency for bioluminescence-driven uncaging compared to LED”.

With `[N-]=[N+]=Nc1ccc(COc2ccc3nc(C4=N[C@@H](C(=O)O)CS4)sc3c2)cc1` [p-azidobenzyl-luciferin, (S)-2-(6-((4-azidobenzyl)oxy)benzo[d]thiazol-2-yl)-4,5-dihydrothiazole-4-carboxylic acid] the “FFLY luminescence after uncaging” value [3, 4] was “Bioluminescence and Ru-dependent increase in FFLY dependent bioluminescence” and the “uncaging efficiency, bioluminescence versus LED” value [3, 5] was “higher efficiency for bioluminescence-driven uncaging compared to LED”.

[Ru(bpy)2(PMe3)(5HT)]^2+ [RuBi5] was tested, and the “serotonin emission after bioluminescence exposure” value (NanoLuc (Nluc) enzyme) was “bioluminescence-dependent increase in the 340 nm peak emission for serotonin”.
